How the values were obtained:
[1] = system: APPswe/PS1ΔE9 double transgenic mice; assay: Co-immunoprecipitation (anti-BECN1) of brain lysates of treated APPswe/PS1ΔE9 mice; type: in vivo, mouse
[2] = system: APPswe/PS1ΔE9 double transgenic mice; assay: Brain Aβ40 and Aβ42 ELISA in treated APPswe/PS1ΔE9 mice; type: in vivo, mouse; details: 5 mg/kg daily oral, 20 days, normalized to total protein
[3] = system: HEK293 cells overexpressing C99-YFP; assay: Secreted Aβ40 ELISA, conditional media of HEK293 cells overexpressing C99-YFP; type: cell-based; details: 1 μM, 37° C., 24 h
Protocol: Clarified lysates containing equivalent amounts of proteins were analyzed by Western blotting. (B, C) HEK293 overexpressing CFP-LC3 cells were infected with lentivirus encoding shRNA targeting LacZ ErbB2, or ErbB2 plus ATG5 for 48 h. The autophagy induction was analyzed by fluorescence confocal microscopy. The number of CFP-LC3 puncta per cell was quantified. The levels of LC3-I, LC3-II, and GAPDH were analyzed by Western blotting. (D, E) HEK293 cells overexpressing ErbB1, ErbB2, CFP-tagged C99, and YFP-tagged NΔE were infected with lentivirus encoding shRNA targeting LacZ (Ctrl), ErbB1, or ErbB2 for 48 h. […] The levels of LC3-1, LC3-II, and p62 were analyzed by Western blotting and quantified by NIH Image J. Conditional media were harvested and processed for determination of secreted Aβ40 using a colourimetric Aβ40-specific ELISA kit. […] The quantitative data are shown as mean±SD from three independent experiments, and were analyzed by Student's t-tests. * p<0.05.
Cell-based γ-secretase assays for the nuclear function of AICD or NICD. […] Cellular luminescence was determined by the addition of Steady-Glo Luciferase Assay reagents (PROMEGA™), according to the manufacturer's instructions. […] The level of secreted Aβ40 was quantified using a human Aβ40 sandwich ELISA kit (Invitrogen) according to the manufacturer's instructions.

[4] = system: APPswe/PS1ΔE9 double transgenic mice; assay: Western blotting of brain homogenates of treated APPswe/PS1ΔE9 mice; type: in vivo, mouse; details: 5 mg/kg daily oral, 20 days

CC#CC(=O)Nc1ccc2ncnc(Nc3cccc(Br)c3)c2c1 [CL-387,785, N-[4-[(3-bromophenyl)amino]-6-quinazolinyl]-2-butynamide]
phosphorylation of EGFR(ErbB1) in brain ([1]; 5 mg/kg daily oral, 20 days): inhibited
interaction between ErbB2 with Beclin-1 in brain ([1]; 5 mg/kg daily oral, 20 days, co-immunoprecipitation): drastically suppressed
formation of the Beclin1-Vps34-Vps15 complex ([1]; summary statement for the compound (FIG. 7)): rescues the formation
reduction in the level of Aβ40 in brain [2]: approximately 40%
reduction in the level of Aβ42 in brain [2]: approximately 40%
secreted Aβ40 production [3]: effectively decreased
brain level of APP-CTF [4]: significant reduction
brain level of ErbB2 [4]: significant reduction
brain level of p62 [4]: significant reduction
brain level of total APP [4]: steady level
brain ratio of LC3-II to LC3-I [4]: increase

— patent publication US10576082B2, “ErbB2 regulates autophagic flux to modulate the proteostasis of APP-CTFs in alzheimer's disease” (Academia Sinica, priority 2016, dated 2020)
